Literature values, collected in US12268679B1 (priority 2021, dated 2025).

Key:
[1] = animal studies, systemic administration, Hirao et al. 2008
human delta receptor = human delta receptor (Homo sapiens, UniProt P41143); details: Ferrari et al. 2017
human delta receptor, sequence (P41143 whole entry): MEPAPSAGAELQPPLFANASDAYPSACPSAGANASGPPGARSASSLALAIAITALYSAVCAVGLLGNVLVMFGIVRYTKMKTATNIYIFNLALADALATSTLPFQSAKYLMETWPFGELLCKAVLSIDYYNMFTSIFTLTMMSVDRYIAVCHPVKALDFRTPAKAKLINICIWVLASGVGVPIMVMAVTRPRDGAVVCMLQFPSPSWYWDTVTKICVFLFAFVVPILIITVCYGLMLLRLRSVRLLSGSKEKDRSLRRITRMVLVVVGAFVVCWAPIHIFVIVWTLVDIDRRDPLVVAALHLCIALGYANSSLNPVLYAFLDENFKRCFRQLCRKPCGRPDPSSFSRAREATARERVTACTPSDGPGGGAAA

CC1(N2CCC(n3c([C@@H]4CCCNC4)nc4ccccc43)CC2)CCCCCCC1 [MCOPPB, 1-[1-(1-methylcyclooctyl)-4-piperidinyl]-2-[(3R)-3-piperidinyl]-1H-benzimidazole]
inhibition of memory or motor function [1]: no inhibition of memory or motor function | sedative side effects ([1]; appear only at much higher doses than the effective anxiolytic dose range): only slight sedative side effects | activation of human delta receptor (human delta receptor): only a small amount
